# In patent US11702409B2, “Pyrazolyl derivatives useful as anti-cancer agents” (NOVARTIS AG, priority 2019, dated 2023):
# Biological target: KRasG12C (M1-K169, biotinylated on the N-terminus) (Homo sapiens (Human), UniProt P01116, G12C)
# Assay: Covalent competition assay (scintillation proximity assay, competition with radiolabeled covalent probe Compound B)
# Format: binding
# Conditions: in vitro KRASG12C activity; 10 nM KRasG12C:GDP, 25 nM radio-ligand and 475 nM unlabelled ligand, incubated 2 hours; read-out: Covalent Competition Assay IC50
# Experimental: The cells were lysed by 4 passages through an Avestin Emulsiflex at about 20000 psi and insoluble debris removed by centrifugation and filtered through a 0.45 μm Durapore membrane (Millipore). […] The protein in the flow through was subjected to a final polishing step on a HiLoad 16/60 Superdex 200 prep grade size-exclusion column pre-equilibrated with SEC-buffer (20 mM HEPES pH 7.4, 150 mM NaCl, 5 mM MgCl2, 1 μM GDP).
# A scintillation proximity assay (SPA) was used to determine the potency of the compounds. This assay measures the ability of the test compound to compete with the radiolabeled covalent probe for binding to and covalently modify KRASG12C.
# A serial dilution of the compounds to be tested is mixed with a fixed concentration of the radiolabeled covalent probe before incubation with KRASG12C:GDP as described below.
# The reaction was started by addition of KRasG12C (M1-K169, biotinylated on the N-terminus) to the compounds and incubated for 2 hours with continuous agitation allowing for full modification of KRasG12C with probe or test compounds. […] The assay buffer contained 20 mM Tris-HCl pH 7.5 (Invitrogen), 150 mM NaCl (Sigma Aldrich), 0.1 mM MgCl2 (Sigma Aldrich), and 0.01% Tween-20 (Sigma Aldrich).
# Evaluation was carried out using assay data analysis software (such as the standard Novartis in-house Helios software application, Novartis Institutes for BioMedical Research, unpublished) using the methods described in Formenko et al., Robust Regression for high-throughput screening.
# Evaluation can also be carried out using commercially available software which is designed to derive IC50 values using 4-parameter fits (e.g. GraphPad Prism, XL fit).
row,IC50 [µM],SMILES
1,0.465,"C=CC(=O)N1CC2(CC(n3nc(C4=CCC(F)(F)CC4)c(-c4c(Cl)c(C)cc5[nH]ncc45)c3C)C2)C1 (single isomer, unassigned) [Example 3a]"
2,1.2,"C=CC(=O)N1CC2(CC(n3nc(C4=CCC(F)(F)CC4)c(-c4c(Cl)c(C)cc5[nH]ncc45)c3C)C2)C1 (single isomer, unassigned) [Example 3b]"
3,0.043,"C=CC(=O)N1CC2(CC(n3nc(-c4ccc(CN5CCCS5(=O)=O)cc4)c(-c4c(Cl)c(C)cc5[nH]ncc45)c3C)C2)C1 (single isomer, unassigned) [Example 5a]"
4,15,"C=CC(=O)N1CC2(CC(n3nc(-c4ccc(CN5CCCS5(=O)=O)cc4)c(-c4c(Cl)c(C)cc5[nH]ncc45)c3C)C2)C1 (single isomer, unassigned) [Example 5b]"
5,1.2,"C=CC(=O)N1CC2(CC(n3nc(-c4ccc(=O)n(C)c4)c(-c4c(Cl)c(C)cc5[nH]ncc45)c3C)C2)C1 (single isomer, unassigned) [Example 6a]"
6,> 50,"C=CC(=O)N1CC2(CC(n3nc(-c4ccc(=O)n(C)c4)c(-c4c(Cl)c(C)cc5[nH]ncc45)c3C)C2)C1 (single isomer, unassigned) [Example 6b]"
7,0.162,"C=CC(=O)N1CC2(CC(n3nc(-c4ccc(-n5nccc5N)nc4)c(-c4c(Cl)c(C)cc5[nH]ncc45)c3C)C2)C1 (single isomer, unassigned) [Example 7a]"
8,> 5,"C=CC(=O)N1CC2(CC(n3nc(-c4ccc(-n5nccc5N)nc4)c(-c4c(Cl)c(C)cc5[nH]ncc45)c3C)C2)C1 (single isomer, unassigned) [Example 7b]"
9,0.066,"C=CC(=O)N1CC2(CC(n3nc(-c4cnc5c(ccn5C)c4)c(-c4c(Cl)c(C)cc5[nH]ncc45)c3C)C2)C1 (single isomer, unassigned) [Example 8a]"
10,2.9,"C=CC(=O)N1CC2(CC(n3nc(-c4cnc5c(ccn5C)c4)c(-c4c(Cl)c(C)cc5[nH]ncc45)c3C)C2)C1 (single isomer, unassigned) [Example 8b]"
11,0.743,"C=CC(=O)N1CC2(CC(n3nc(-c4ccnc(C#N)c4)c(-c4c(Cl)c(C)cc5[nH]ncc45)c3C)C2)C1 (single isomer, unassigned) [Example 9a]"
12,> 50,"C=CC(=O)N1CC2(CC(n3nc(-c4ccnc(C#N)c4)c(-c4c(Cl)c(C)cc5[nH]ncc45)c3C)C2)C1 (single isomer, unassigned) [Example 9b]"
13,1.2,"C=CC(=O)N1CC2(CC(n3nc(-c4cncc(C#N)c4)c(-c4c(Cl)c(C)cc5[nH]ncc45)c3C)C2)C1 (single isomer, unassigned) [Example 10a]"
14,> 50,"C=CC(=O)N1CC2(CC(n3nc(-c4cncc(C#N)c4)c(-c4c(Cl)c(C)cc5[nH]ncc45)c3C)C2)C1 (single isomer, unassigned) [Example 10b]"
15,0.973,"C=CC(=O)N1CC2(CC(n3nc(-c4ccc(C#N)nc4)c(-c4c(Cl)c(C)cc5[nH]ncc45)c3C)C2)C1 (single isomer, unassigned) [Example 11a]"
16,> 50,"C=CC(=O)N1CC2(CC(n3nc(-c4ccc(C#N)nc4)c(-c4c(Cl)c(C)cc5[nH]ncc45)c3C)C2)C1 (single isomer, unassigned) [Example 11b]"
17,0.018,"C=CC(=O)N1CC2(CC(n3nc(-c4ccc(N5CCN(C)C5=O)cc4)c(-c4c(Cl)c(C)cc5[nH]ncc45)c3C)C2)C1 (single isomer, unassigned) [Example 13a]"
18,14.8,"C=CC(=O)N1CC2(CC(n3nc(-c4ccc(N5CCN(C)C5=O)cc4)c(-c4c(Cl)c(C)cc5[nH]ncc45)c3C)C2)C1 (single isomer, unassigned) [Example 13b]"
19,0.016,"C=CC(=O)N1CC2(CC(n3nc(-c4ccc5c(cnn5CCN(C)C)c4)c(-c4c(Cl)c(C)cc5[nH]ncc45)c3C)C2)C1 (single isomer, unassigned) [Example 15a]"

row,IC50 [µM],SMILES
1,4.8,"C=CC(=O)N1CC2(CC(n3nc(-c4ccc5c(cnn5CCN(C)C)c4)c(-c4c(Cl)c(C)cc5[nH]ncc45)c3C)C2)C1 (single isomer, unassigned) [Example 15b]"
2,0.011,"C=CC(=O)N1CC2(CC(n3nc(-c4ccc5nn(CCN(C)C)cc5c4)c(-c4c(Cl)c(C)cc5[nH]ncc45)c3C)C2)C1 (single isomer, unassigned) [Example 16a]"
3,23.4,"C=CC(=O)N1CC2(CC(n3nc(-c4ccc5nn(CCN(C)C)cc5c4)c(-c4c(Cl)c(C)cc5[nH]ncc45)c3C)C2)C1 (single isomer, unassigned) [Example 16b]"
4,0.013,"C=CC(=O)N1CC2(CC(n3nc(-c4ccc5c(cnn5CCN5CCOCC5)c4)c(-c4c(Cl)c(C)cc5[nH]ncc45)c3C)C2)C1 (single isomer, unassigned) [Example 17a]"
5,14.6,"C=CC(=O)N1CC2(CC(n3nc(-c4ccc5c(cnn5CCN5CCOCC5)c4)c(-c4c(Cl)c(C)cc5[nH]ncc45)c3C)C2)C1 (single isomer, unassigned) [Example 17b]"
6,1.9,"C=CC(=O)N1CC2(CC(n3nc(-c4cccnc4)c(-c4c(Cl)ccc5[nH]ncc45)c3C)C2)C1 (single isomer, unassigned) [Example 19a]"
7,> 50,"C=CC(=O)N1CC2(CC(n3nc(-c4cccnc4)c(-c4c(Cl)ccc5[nH]ncc45)c3C)C2)C1 (single isomer, unassigned) [Example 19b]"
8,0.148,"C=CC(=O)N1CC2(CC(n3nc(-c4cnc(N)c(F)c4)c(-c4c(Cl)c(C)cc5[nH]ncc45)c3C)C2)C1 (single isomer, unassigned) [Example 20a]"
9,12.5,"C=CC(=O)N1CC2(CC(n3nc(-c4cnc(N)c(F)c4)c(-c4c(Cl)c(C)cc5[nH]ncc45)c3C)C2)C1 (single isomer, unassigned) [Example 20b]"
10,0.06,"C=CC(=O)N1CC2(CC(n3nc(-c4ccc5c(c4)CN(C)C(=O)C5)c(-c4c(Cl)c(C)cc5[nH]ncc45)c3C)C2)C1 (single isomer, unassigned) [Example 21a]"
11,15,"C=CC(=O)N1CC2(CC(n3nc(-c4ccc5c(c4)CN(C)C(=O)C5)c(-c4c(Cl)c(C)cc5[nH]ncc45)c3C)C2)C1 (single isomer, unassigned) [Example 21b]"
12,0.023,"C=CC(=O)N1CC2(CC(n3nc(-c4ccc5c(c4)CCN5C(C)=O)c(-c4c(Cl)c(C)cc5[nH]ncc45)c3C)C2)C1 (single isomer, unassigned) [Example 22a]"
13,> 50,"C=CC(=O)N1CC2(CC(n3nc(-c4ccc5c(c4)CCN5C(C)=O)c(-c4c(Cl)c(C)cc5[nH]ncc45)c3C)C2)C1 (single isomer, unassigned) [Example 22b]"
14,0.564,"C=CC(=O)N1CC2(CC(n3nc(-c4ccc5ncnn5c4)c(-c4c(Cl)c(C)cc5[nH]ncc45)c3C)C2)C1 (single isomer, unassigned) [Example 23a]"
15,13.9,"C=CC(=O)N1CC2(CC(n3nc(-c4ccc5ncnn5c4)c(-c4c(Cl)c(C)cc5[nH]ncc45)c3C)C2)C1 (single isomer, unassigned) [Example 23b]"
16,0.071,"C=CC(=O)N1CC2(CC(n3nc(-c4ccc5c(c4)CC(=O)N5C)c(-c4c(Cl)c(C)cc5[nH]ncc45)c3C)C2)C1 (single isomer, unassigned) [Example 24a]"
17,> 50,"C=CC(=O)N1CC2(CC(n3nc(-c4ccc5c(c4)CC(=O)N5C)c(-c4c(Cl)c(C)cc5[nH]ncc45)c3C)C2)C1 (single isomer, unassigned) [Example 24b]"
18,0.041,"C=CC(=O)N1CC2(CC(n3nc(-c4ccc5cnccc5c4)c(-c4c(Cl)c(C)cc5[nH]ncc45)c3C)C2)C1 (single isomer, unassigned) [Example 25a]"
19,7.8,"C=CC(=O)N1CC2(CC(n3nc(-c4ccc5cnccc5c4)c(-c4c(Cl)c(C)cc5[nH]ncc45)c3C)C2)C1 (single isomer, unassigned) [Example 25b]"

row,SMILES,IC50 [µM]
1,"C=CC(=O)N1CC2(CC(n3nc(-c4ccc5c(cnn5C)c4)c(-c4c(Cl)c(C)cc5[nH]ncc45)c3C)C2)C1 (single isomer, unassigned) [Example 1a]",0.017
2,"C=CC(=O)N1CC2(CC(n3nc(-c4ccc5[nH]ncc5c4)c(-c4c(Cl)c(C)cc5[nH]ncc45)c3C)C2)C1 (single isomer, unassigned) [Example 12a]",0.024
3,"C=CC(=O)N1CC2(CC(n3nc(-c4ccc5[nH]ncc5c4)c(-c4c(Cl)c(C)cc5[nH]ncc45)c3C)C2)C1 (single isomer, unassigned) [Example 12b]",6.1
4,"C=CC(=O)N1CC2(CC(n3nc(-c4ccccc4)c(-c4c(Cl)c(C)cc5[nH]ncc45)c3C)C2)C1 (single isomer, unassigned) [Example 26a, 1-{6-[(4M)-4-(5-Chloro-6-methyl-1H-indazol-4-yl)-5-methyl-3-phenyl-1H-pyrazol-1-yl]-2-azaspiro[3.3]heptan-2-yl}prop-2-en-1-one]",0.043
5,"C=CC(=O)N1CC2(CC(n3nc(-c4ccccc4)c(-c4c(Cl)c(C)cc5[nH]ncc45)c3C)C2)C1 (single isomer, unassigned) [Example 26b]",45.6
